Where two headings read alike, the source gives them in different places.
Experiments:
[1] = IAM column, cited from earlier work
[2] = Biomimetic IAM chromatography (log kw, IAM); format: physicochemical; conditions: IAM.PC.DD2 column, buffered acetonitrile, pH 7.4, 25 °C, extrapolated to buffer
Method: High performance liquid chromatography (HPLC) measurements were performed on a Shimadzu Vp liquid chromatographic system (Shimadzu, Izabelin, Poland). This instrument was equipped with LC 10AT pump, SPD 10A ultraviolet-visible detector, SCL 10A system controller, CTO-10 AS chromatographic oven, and a Rheodyne injector valve with a 20 μL loop. As the stationary phase Regis IAM.PC.DD2 column, 100 × 4.6 mm i.d., 10 μm (Morton Grove, IL, USA) was applied.
Buffered acetonitrile mixtures were used as effluents. Acetonitrile concentration, expressed as a volume fraction, was varied within a range from 0.2 to 0.5, with a constant step of 0.1. The buffer was prepared from 0.01 mol L^−1 solutions of Na2HPO4 and citric acid, and a pH value of 7.4 was fixed before mixing with an organic modifier. The flow rate was 1.3 mL min^−1. Each compound sample was dissolved in acetonitrile to obtain a concentration of 0.005 mg mL^−1, and each solute peak was detected under ultraviolet light at a wavelength of λmax = 254 nm. Each measurement was performed at a constant temperature (25 °C) at least three times. The dead time values were measured from sodium chloride peaks.
From among 126 heterocyclic compounds evaluated in this work (Table 1), 89 structures have been investigated previously on the IAM column: these are molecules from groups III, IV, V, VI, VII, VIII, IX, XI, XIII, and XV [21, 22, 23]. The remaining ones, i.e., 37 compounds from groups I, II, X, XII and XIV, were tested in this study for the first time using the biomimetic IAM chromatographic technique. To calculate the log kw values (i.e., the logarithms of retention parameter in the buffer as the mobile phase), the retention parameters, logs k (k = (tr − t0)/t0; where tr is the solute retention time, and t0 is a dead time), that were measured for all tested compounds, were used according to Soczewiński-Wachtmeister’s equation (Equation (5)): (5) log k=logtr−t0/t0=log kw−sφ where φ denotes the volume fraction of acetonitrile as organic modifier in the mobile phase, and kw means the retention parameter corresponding to buffer as the mobile phase. The log kw values were evaluated as linear regression coefficients (Table 2).

Row | Compound | log kw, IAM ([1]; ref [23]) | further results
1 | O=c1c(C(F)(F)F)nnc2n1CCN2c1ccc(Cl)c(Cl)c1 [Compound 22] |  | log kw, IAM ([1]; ref [22]): 2.29
2 | Cc1ccc(Cc2nnc3n(c2=O)CCN3c2ccc(C)cc2)cc1 [Compound 107] | 2.51 | 
3 | CCOC(=O)Cc1nnc2n(c1=O)CCN2c1ccccc1OC [Compound 47] | 0.91 | 
4 | O=c1c(-c2ccco2)nnc2n1CCN2c1ccccc1 [Compound 61] | 1.29 | 
5 | Clc1ccc(N2CCn3cnnc32)cc1Cl [Compound 5] |  | log kw, IAM [2]: 1.18
6 | c1ccc(OCc2nnc3n2CCN3c2ccccc2)cc1 [Compound 6] |  | log kw, IAM [2]: 0.11
7 | COc1ccc(N2CCn3c2nnc(-c2ccco2)c3=O)cc1 [Compound 66] | 1.19 | 
8 | O=c1c(-c2ccccc2)nnc2n1CCN2c1cccc(Cl)c1 [Compound 90] | 2.64 | 
9 | Cc1ccc(N2CCn3c2nnc(C(=O)NN)c3=O)cc1 [Compound 52] |  | log kw, IAM ([1]; ref [21]): 0.16
10 | Cc1cccc(N2CCn3c2nnc(-c2ccco2)c3=O)c1C [Compound 64] | 1.42 | 
11 | CCOc1ccc(N2CCn3c2nnc(-c2ccccc2)c3=O)cc1 [Compound 87] | 2.14 | 
12 | CCc1nnc2n(c1=O)CCN2c1ccccc1 [Compound 23] | 0.55 | 
13 | O=c1c(Cc2cccc(Cl)c2)nnc2n1CCN2c1ccccc1 [Compound 104] | 2.48 | 
14 | Cc1ccccc1N1CCn2c1nnc(-c1ccco1)c2=O [Compound 62] | 0.96 | 
15 | O=c1c(CCc2ccccc2)nnc2n1CCN2c1ccc(Cl)cc1 [Compound 125] | 2.68 | 
16 | CC(C)c1nnc2n(c1=O)CCN2c1cccc(Cl)c1 [Compound 32] |  | log kw, IAM ([1]; ref [22]): 1.49
17 | Clc1ccc(N2CCn3c(COc4cc(Cl)c(Cl)cc4Cl)nnc32)cc1 [Compound 14] |  | log kw, IAM [2]: 2.55
18 | Cc1cccc(N2CCn3c2nnc(-c2ccc([N+](=O)[O-])cc2)c3=O)c1C [Compound 97] |  | log kw, IAM [2]: 1.78
19 | O=c1c(-c2ccc([N+](=O)[O-])cc2)nnc2n1CCN2c1cccc(Cl)c1 [Compound 99] |  | log kw, IAM [2]: 2.02
20 | Cc1ccc(N2CCn3c2nnc(-c2ccco2)c3=O)cc1 [Compound 63] | 1.69 | 
21 | O=c1c(Cc2ccc(Cl)cc2)nnc2n1CCN2c1ccccc1 [Compound 105] | 2.39 | 
22 | NNC(=O)Cc1nnc2n(c1=O)CCN2c1ccc(Cl)cc1 [Compound 60] |  | log kw, IAM [2]: 0.32
23 | O=c1c(-c2ccco2)nnc2n1CCN2c1ccc(Cl)cc1 [Compound 69] | 2.02 | 
24 | O=c1c(Cc2cccc(Cl)c2)nnc2n1CCN2c1ccc(Cl)cc1 [Compound 120] | 3.15 | 
25 | Clc1cccc(N2CCn3cnnc32)c1 [Compound 4] |  | log kw, IAM [2]: 0.64
26 | Cc1ccc(N2CCn3c2nnc(C(F)(F)F)c3=O)cc1 [Compound 17] |  | log kw, IAM ([1]; ref [22]): 1.25
27 | Clc1ccc(N2CCn3c(COc4ccc(Cl)cc4Cl)nnc32)cc1 [Compound 12] |  | log kw, IAM [2]: 2.25

Row | Compound | log kw, IAM ([1]; ref [23]) | further results
28 | COc1ccccc1N1CCn2c1nnc(-c1ccco1)c2=O [Compound 65] | 1.11 | 
29 | CCc1nnc2n(c1=O)CCN2c1ccc(Cl)cc1 [Compound 27] | 1.24 | 
30 | O=c1c(Cc2ccccc2Cl)nnc2n1CCN2c1ccc(Cl)cc1 [Compound 119] | 3.22 | 
31 | O=c1c(-c2ccccc2)nnc2n1CCN2c1ccccc1 [Compound 81] | 1.91 | 
32 | O=c1c(-c2cccs2)nnc2n1CCN2c1ccc(Cl)cc1 [Compound 79] |  | log kw, IAM [2]: 1.53
33 | COc1ccccc1N1CCn2c1nnc(-c1cccs1)c2=O [Compound 76] |  | log kw, IAM [2]: 1.50
34 | Cc1cc(Cl)ccc1OCc1nnc2n1CCN2c1ccc(Cl)cc1 [Compound 11] |  | log kw, IAM [2]: 2.14
35 | O=c1c(Cc2ccccc2)nnc2n1CCN2c1ccccc1 [Compound 102] | 3.26 | 
36 | COc1ccccc1N1CCn2c1nnc(-c1ccc([N+](=O)[O-])cc1)c2=O [Compound 96] |  | log kw, IAM [2]: 1.78
37 | Cc1ccccc1N1CCn2c1nnc(Cc1ccccc1Cl)c2=O [Compound 117] | 2.02 | 
38 | O=c1c(-c2ccco2)nnc2n1CCN2c1ccccc1Cl [Compound 67] | 1.27 | 
39 | CCOc1ccc(N2CCn3c2nnc(CC(=O)OC)c3=O)cc1 [Compound 43] | 1.42 | 
40 | NNC(=O)Cc1nnc2n(c1=O)CCN2c1ccccc1 [Compound 56] |  | log kw, IAM [2]: 0.40
41 | Cc1ccccc1N1CCn2c1nnc(-c1cccs1)c2=O [Compound 73] |  | log kw, IAM [2]: 1.54
42 | O=c1c(Cc2ccccc2)nnc2n1CCN2c1ccc(Cl)cc1 [Compound 118] | 2.52 | 
43 | CCc1nnc2n(c1=O)CCN2c1cccc(Cl)c1 [Compound 26] | 0.84 | 
44 | Cc1ccc(N2CCn3c2nnc(-c2cccs2)c3=O)cc1 [Compound 74] |  | log kw, IAM [2]: 1.94
45 | Cc1ccc(N2CCn3c2nnc(Cc2ccc(Cl)cc2)c3=O)cc1 [Compound 111] | 2.81 | 
46 | Clc1ccc(OCc2nnc3n2CCN3c2ccc(Cl)cc2)cc1 [Compound 10] |  | log kw, IAM [2]: 1.86
47 | CCOC(=O)c1nnc2n(c1=O)CCN2c1ccc(C)cc1 [Compound 36] |  | log kw, IAM ([1]; ref [22]): 1.93
48 | Cc1ccc(N2CCn3cnnc32)cc1 [Compound 2] |  | log kw, IAM [2]: 0.41
49 | CC(C)c1nnc2n(c1=O)CCN2c1ccccc1 [Compound 29] |  | log kw, IAM ([1]; ref [22]): 0.76
50 | Cc1ccc(N2CCn3c2nnc(-c2ccccc2)c3=O)cc1 [Compound 84] | 2.22 | 
51 | COc1ccc(N2CCn3c(COc4ccc(Cl)cc4)nnc32)cc1 [Compound 7] |  | log kw, IAM [2]: 0.06
52 | O=c1c(-c2cccs2)nnc2n1CCN2c1ccccc1 [Compound 72] |  | log kw, IAM [2]: 1.64
53 | O=c1c(-c2ccco2)nnc2n1CCN2c1c(Cl)cccc1Cl [Compound 71] | 1.70 | 
54 | Cc1ccccc1N1CCn2c1nnc(-c1ccc([N+](=O)[O-])cc1)c2=O [Compound 94] |  | log kw, IAM [2]: 2.52

Row | Compound | log kw, IAM ([1]; ref [23]) | further results
55 | CCc1nnc2n(c1=O)CCN2c1ccc(C)cc1 [Compound 24] | 1.00 | 
56 | O=c1c(CCc2ccccc2)nnc2n1CCN2c1ccc(Cl)c(Cl)c1 [Compound 126] | 3.40 | 
57 | CCOC(=O)c1nnc2n(c1=O)CCN2c1ccc(Cl)cc1 [Compound 38] |  | log kw, IAM ([1]; ref [22]): 1.12
58 | O=c1c(CCc2ccccc2)nnc2n1CCN2c1ccccc1Cl [Compound 124] | 1.81 | 
59 | CCOC(=O)Cc1nnc2n(c1=O)CCN2c1ccc(C)cc1 [Compound 46] | 1.70 | 
60 | Cc1ccc(N2CCn3c2nnc(Cc2cccc(C)c2)c3=O)cc1 [Compound 108] | 2.59 | 
61 | COC(=O)Cc1nnc2n(c1=O)CCN2c1ccccc1 [Compound 40] | 0.81 | 
62 | CCOC(=O)c1nnc2n(c1=O)CCN2c1ccccc1 [Compound 35] |  | log kw, IAM ([1]; ref [22]): 0.48
63 | Cc1cccc(N2CCn3c2nnc(-c2ccccc2)c3=O)c1C [Compound 88] | 1.85 | 
64 | CCc1nnc2n(c1=O)CCN2c1ccccc1Cl [Compound 25] | 0.80 | 
65 | O=c1c(Cc2ccc(Cl)cc2)nnc2n1CCN2c1ccc(Cl)cc1 [Compound 121] | 3.17 | 
66 | COc1ccccc1N1CCn2c1nnc(-c1ccccc1)c2=O [Compound 85] | 1.47 | 
67 | O=c1c(-c2ccco2)nnc2n1CCN2c1cccc(Cl)c1 [Compound 68] | 2.08 | 
68 | CCOc1ccc(N2CCn3c2nnc(Cc2ccc(C)cc2)c3=O)cc1 [Compound 113] | 2.43 | 
69 | Cc1ccc(N2CCn3c2nnc(Cc2ccccc2)c3=O)cc1 [Compound 106] | 2.15 | 
70 | CCOc1ccc(N2CCn3c2nnc(Cc2cccc(Cl)c2)c3=O)cc1 [Compound 115] | 2.73 | 
71 | COC(=O)Cc1nnc2n(c1=O)CCN2c1ccc(Cl)cc1 [Compound 44] | 1.82 | 
72 | O=c1c(C(F)(F)F)nnc2n1CCN2c1cccc(Cl)c1 [Compound 20] |  | log kw, IAM ([1]; ref [22]): 1.66
73 | Cc1ccccc1N1CCn2c1nnc(-c1ccccc1)c2=O [Compound 82] | 1.53 | 
74 | Cc1ccc(N2CCn3c2nnc(C(C)C)c3=O)cc1 [Compound 30] |  | log kw, IAM ([1]; ref [22]): 1.05
75 | CCOC(=O)Cc1nnc2n(c1=O)CCN2c1ccc(Cl)cc1 [Compound 49] | 2.11 | 
76 | Cc1ccc(N2CCn3c2nnc(Cc2cccc(Cl)c2)c3=O)cc1 [Compound 110] | 2.78 | 
77 | O=c1c(C(F)(F)F)nnc2n1CCN2c1ccc(Cl)cc1 [Compound 21] |  | log kw, IAM ([1]; ref [22]): 1.58
78 | O=c1c(CCc2ccccc2)nnc2n1CCN2c1ccccc1 [Compound 122] | 2.07 | 
79 | Cc1ccc(N2CCn3c2nnc(CCc2ccccc2)c3=O)cc1 [Compound 123] | 2.41 | 
80 | O=c1c(-c2ccco2)nnc2n1CCN2c1ccc(Cl)c(Cl)c1 [Compound 70] | 3.23 | 
